Data taken from EP1325958A1, “Genetic sequence coding for creatinine deiminase, and its use” (CampusGen GmbH, priority 2002, dated 2003).

Legend:
[1] = test system: Creatinin-Deiminase (EC 3.5.4.21) aus Tissierella creatinini, heterolog in E. coli exprimiert, gereinigt, SEQ ID NO:2; experiment: Interference studies: substances added to the standard creatinine deiminase test, enzyme activity determined; type: biochemical; conditions: for Keine Interferenzen bis zu einer Konzentration von: substance added to the standard test (Creatinin 1,5 mmol/l, 37°C, pH 8,6), no interference with the enzyme test at the stated concentration
Description: Dieses erfindungsgemäße Verfahren ermöglicht die Bestimmung von Creatinin bei Einsatz von nur zwei Enzymen, die in einer Mess- bzw. Indikatorreaktion eingesetzt werden, wobei keine komplizierten Hilfsreaktionen erforderlich sind. Wie in Tabelle 1 gezeigt ist, weist die erfindungsgemäße Creatinin-Deiminase eine außerordentlich hohe Spezifität für sein Substrat Creatinin auf. Das Enzym zeigt insbesondere mit Cytosin bis zu einer Konzentration von […] keine Interferenz in der Reaktion. Somit ermöglicht die erfindungsgemäße Creatinin-Deiminase eine Bestimmung von Creatinin auch in Gegenwart anderer Substrate, insbesondere Cytosin ohne das Auftreten einer Interferenz, die das Messergebnis verfälschen würde. Tabelle 1:
Die Aktivität des gereinigten rekombinanten Enzyms wurde durch eine modifizierte enzymatische Methode nach Bergmeyer 1985 (BERGMEYER, H.U. (1985). Methods of enzymatic analysis 8: 488-507) bestimmt. Sie beruht auf der Messung des während der Creatinindeiminierung freigesetzten Ammoniaks in einem gekoppelten optischen Test durch Verbrauch von NADH bei 340 nm bzw. 365 nm. Der Reaktionsansatz enthielt folgende Konzentrationen in einem Endvolumen von 0,6 ml: TEA-Puffer 0,11 mol/l, pH 8,6; Creatinin 1,5 mmol/l; ADP 1,11 mmol/l; DTE 1 mmol/l; NADH 0,11 mmol/l; 2-Oxoglutarat 11 mmol/l; Glutamat-Dehydrogenase 8 U/ml. Nach Inkubation des Reaktionsansatzes (5 min bei 37°C) in einer Küvette im Photometer wurde die Reaktion mit 0,01 ml des gereinigten rekombinanten Enzyms gestartet und die Extinktionsabnahme bei 340 nm beobachtet. Eine Enzymeinheit katalysiert den Abbau von 1 µmol Creatinin/min bei 37°C.
Es wurden Interferenzstudien mit der gereinigten heterolog exprimierten Creatinin-Deiminase mit verschiedenen in Seren relevanten Substanzen durchgeführt. Diese wurden zum Standardtestansatz gegeben und jeweils die Aktivität der Creatinin-Deiminase bestimmt. In Tabelle 1 sind die getesteten relevanten Substanzen aufgelistet, die in den angegebenen Konzentrationen keine Interferenzen mit dem Enzymtest zeigten. Die rekombinante Creatinin-Deiminase zeigte eine außerordentliche Substratspezifität bei Zusatz der in Tabelle 1 angegebenen Substanzen.

[2] = test system: Creatinin-Deiminase (EC 3.5.4.21) aus Tissierella creatinini, heterolog in E. coli exprimiert, gereinigt, SEQ ID NO:2; experiment: Substrate saturation of purified recombinant creatinine deiminase (coupled optical test, Lineweaver-Burk plot); type: biochemical
Description: Abb. 1: Biosynthese von Creatin und Creatinin im menschlichen Körper. Die Synthese erfolgt in mehreren Schritten in verschiedenen Körperorganen. Abb. 2: Enzymatische Bestimmung von Creatinin mit Creatininase, Creatin-Kinase, Pyruvat-Kinase und Laktatdehydrogenase. Creatinin wird katalysiert durch Creatininase und Creatin-Kinase gekoppelt mit Pyruvatbildung. Das Pyruvat wird in der Indikatorreaktion in Gegenwart von Laktatdehydrogenase zu Laktat umgesetzt und dabei eine Extinktionsabnahme bei 340 nm von NADH gemessen. Abb.3: Enzymatische Bestimmung von Creatinin mit Creatininase, Creatinase, Sarcosinoxidase und Peroxidase. Creatinin wird katalysiert durch Creatininase, Creatinase und Sarcosinoxidase zu Glycin, Formaldehyd und H2O2 abgebaut. Das H2O2 wird in der Indikatorreaktion mittels Peroxidase anhand der Extinktionszunahme bei 510 oder 546 nm bestimmt. Abb.4: Enzymatische Bestimmung von Creatinin mit Creatinin-Deiminase und Glutamatdehydrogenase. Creatinin wird katalysiert durch Creatinin-Deiminase zu N-Methylhydantoin und Ammoniak abgebaut. Der Ammoniak wird mit α-Ketoglutarat und NADH mittels Glutamat-Dehydrogenase zu Glutamat umgesetzt und photometrisch die Extinktionsabnahme durch Verbrauch an NADH bei 340 bzw. 365 nm gemessen. Abb. 5: Schematische Darstellung des pBluescriptSK^+-Vektors. Gezeigt sind einige Restriktionsschnittstellen. […]

Compound	Keine Interferenzen bis zu einer Konzentration von [1]	further results
Nc1nc(=O)[nH]cc1F [5-Fluorocytosin]	1000 mg/L	
CC(C)=O [Aceton]	2000 mg/L	
O=C1O[C@H]([C@@H](O)CO)C(O)=C1O [Ascorbinsäure]	200 mg/L	
C[C@H](CS)C(=O)N1CCC[C@H]1C(=O)O [Captopril]	83 mg/L	
CN(CC(=O)O)C(=N)N [Creatin]	2000 mg/L	
CN1CC(=O)N=C1N [Creatinin]		Km ([2]; purified recombinant enzyme, 0,06 µg per test, coupled optical test, 37°C, TEA-Puffer pH 8,6, read-out: Km-Wert für Creatinin): 1100 µM; Vmax ([2]; substrate Creatinin, this enzyme preparation, Proteinkonzentration: 6 µg/ml --> 1467 U/mg): 8,8 U/ml
Nc1cc[nH]c(=O)n1 [Cytosin]	2000 mg/L	keine Interferenz in der Reaktion bis zu einer Konzentration von ([1]; statement in the text referring to Tabelle 1): 2000 mg/mL
CNC[C@H](O)c1ccc(O)c(O)c1 [Epinephrin]	0,05 mg/l	
NS(=O)(=O)c1cc(C(=O)O)c(NCc2ccco2)cc1Cl [Fuoresemid]	4433 mg/L	
OC[C@H]1OC(O)[C@H](O)[C@@H](O)[C@@H]1O (some centres unmarked) [Glukose]	1100 mg/L	
N[C@@H](Cc1c[nH]cn1)C(=O)O [Histidin]	2250 mg/L	
NCC(O)c1cccc(O)c1 (centres unmarked) [Norfenefrin]	1,5 mg/l	
O=C(O)C(=O)O [Oxalsäure]	400 mg/L	
O=C(O)c1cc(N=Nc2ccc(S(=O)(=O)Nc3ccccn3)cc2)ccc1O [Salazosulfapyridin]	550 mg/L	
Cc1cc(NS(=O)(=O)c2ccc(N)cc2)no1 [Sulfatmethoxazol]	500 mg/L	
COc1cc(Cc2cnc(N)nc2N)cc(OC)c1OC [Trimethoprim]	46 mg/L	
CN[C@H](CC(C)C)C(=O)N[C@H]1C(=O)N[C@@H](CC(N)=O)C(=O)N[C@H]2C(=O)N[C@H]3C(=O)N[C@H](C(=O)N[C@H](C(=O)O)c4cc(O)cc(O)c4-c4cc3ccc4O)[C@H](O)c3ccc(c(Cl)c3)Oc3cc2cc(c3O[C@@H]2O[C@H](CO)[C@@H](O)[C@H](O)[C@H]2O[C@H]2C[C@](C)(N)[C@H](O)[C@H](C)O2)Oc2ccc(cc2Cl)[C@H]1O [Vancomycin]	288 mg/L	
CC(N)(Cc1ccc(O)c(O)c1)C(=O)O (stereo not drawn) [α-Methyl-Dopa]	107 mg/L	
